# Data reported in patent US20240307220A1, “Combination Therapy to Treat Temperature Sensitive Mutant Tumors” (H. LEE MOFFITT CANCER CENTER AND RESEARCH INSTITUTE INC., priority 2021, published 2024).
# Key:
# UC3 bladder cancer cells = assay: UC3 colony formation after 2 hrs drug treatment, washout and 32° C. or 37° C. incubation; format: cell-based; conditions: 2 hrs drug at 37° C., washout, 32° C. vs 37° C. 24 hrs, then 7 days at 37° C.
# Method: FIGS. 17A and 17B show hypothermia treatment given after chemotherapy enhances drug response in bladder cancer. […] The washed cells were incubated at 32° C. or 37° C. for 24 hrs, followed by 7 days at 37° C. and crystal violet staining for colony formation.
# Standard bladder intravesical chemotherapy involves 1-2 hr irrigation with drugs at 37° C. or 42° C. The effect of treating cells with 32° C. hypothermia after chemotherapy was tested to avoid interference with drug uptake. TS mutant p53 activation peaks 6-8 hrs after shift to 32° C., which should cooperate with chemotherapy-induced DNA damage to induce cell death. […] Saline irrigation of up to 24 hrs is routinely performed after transurethral resection of bladder tumor (TURBT) procedure to prevent clotting. Therefore, irrigation with cooled saline after intravesical chemotherapy is expected to be well-tolerated and safe.
# [1] = Pharmacological induction of hypothermia by CHA in nude mice; format: in vivo
# Method: FIGS. 6A to 6D show hypothermia inhibits the growth of tumors expressing ts p53. […] One group of mice was treated with 32° C. hypothermia in 24 hr×6 format. Control animals (37° C.) were not treated. […] Tumor size (mean±SD) was plotted over time.
# Animal experiment. Animal experiments were reviewed and approved by the University of South Florida IACUC. Athymic female nude mice (6-week old, Athymic Nude-Foxn1nu, Envigo) were injected subcutaneously with 0.1 ml 1:1 slurry of Matrigel (VWR 47743-715) and 1×10^7 cells in PBS at each site. The inoculated mice were housed in a cabinet set to 28° C. (ARIA BIO-C36 ventilated cabinet, TECNIPLAST) to ensure that tumors develop at ˜37° C. Each mouse received injections at 2 sites, tumors formed at >80% of sites injected with GA10 cells. N^6-cyclohexyladenosine (CHA, Sigma C9901) was dissolved at 20 mg/ml in 25% (2-Hydroxypropyl)-β-cyclodextrin (w/v, Sigma H107) and heated at 65° C. for 10 min to ensure dissolution. Camptothecin (CPT, Santa Cruz Biotechnology sc-200871B) was freshly dissolved in 1 N NaOH, diluted to ˜0.5 mg/ml with saline, and adjusted to pH10 using HCl. To induce hypothermia, 0.2 ml saline+10% glucose containing CHA and CPT was administered by intra peritoneal injection to provide a CHA dosage of 10 mg/kg body weight and CPT (when indicated) dosage of 1.5 mg/kg body weight. The mice were kept in the 28° C. cabinet and monitored using infrared thermal imaging camera (FLIR ONE Pro, FLIR® Systems, Inc.) to verify that body temperature was maintained at ˜32° C. A second injection of CHA (10 mg/kg) in 0.4 ml saline+10% glucose was given after 10 hours to maintain hypothermia for ˜24 hours. A third injection of CHA (10 mg/kg) in 0.4 ml saline+10% glucose was given after 10 hours to maintain hypothermia for ˜32 hours. After regaining normal body temperature, the mice were kept for 2-4 days in the 28° C. cabinet to allow weight recovery (˜10% weight loss occurred during hypothermia due to loss of mobility and food intake). The treatment was repeated 4-5 times (24 hr×6 or 32 hr×5 format). In each subsequent round CHA dosage was increased by 25% to compensate for the gradual loss of sensitivity.
# Pharmacological induction of hypothermia. To test the effect of hypothermia on tumors with ts p53, the adenosine A1 receptor (A1AR) agonist CHA ([…]) was used to lower mouse body temperature to 32° C. for 24-48 hours. […] Intraperitoneal injection of CHA caused body temperature to decrease to ˜3° C. above the environment in ˜10 minutes, consistent with the induction of hibernation-like response in rats and mice by A1AR agonists (Tupone D, et al. J Neurosci 2013 33:14512-25; Futatsuki T, et al. Sci Rep 2018 8:2717). […] This was achieved by keeping the CHA-treated mice in a 28° C. environment (FIG. 6A). […]
# [2] = system: H1299 cells expressing A138V; assay: ChIP of p53 DNA binding in H1299 expressing A138V shifted to 32° C. with CHX or 17-AAG; format: cell-based, human; parameters: rescue of p53 DNA binding at 32° C. (ChIP): dose or concentration left out as unconfirmed
# Method: FIGS. 4A to 4E show molecular chaperones mediate refolding of stockpiled ts p53 at permissive temperature. […] P53 binding to p21 promoter was determined by ChIP. […] P53 DNA binding was determined by ChIP. FIG. 4C is a diagram of cell-free luciferase fragment complementation assay that detects the DNA binding of p53-Cluc fusion protein. ZF-Nluc and p53-Cluc binding to DNA containing ZF and p53 sites juxtapose Nluc and Cluc domains to restore luciferase activity. […] The heat-treated p53-Cluc proteins were mixed with ZF-Nluc, DNA, ATP, E. coli extract containing 5 chaperones and incubated for 3 hrs at 23° C. P53 DNA binding was detected by measuring luciferase activity. The results are average of 3 experiments (mean±SD). **p<0.01.
# Chromatin immunoprecipitation (ChIP). ChIP assay was performed using standard procedure. Crosslinked p53-DNA complexes were immunoprecipitated with DO-1 antibody. Samples were subjected to SYBR Green real-time PCR analysis using forward and reverse primers for the p53 binding sites in the p21 promoter ([…] (SEQ ID NO:7) and […] (SEQ ID NO:8)), and PUMA promoter ([…] (SEQ ID NO:9) and […] (SEQ ID NO:10)).
# [3] = nude mice, intraperitoneal injection
smiles,measurement,setting,value
Nc1ccn([C@@H]2O[C@H](CO)[C@@H](O)C2(F)F)c(=O)n1 [Gemcitabine],effect of 32° C. for 24 hrs after drug on growth inhibition (colony formation),UC3 bladder cancer cells,modestly increased
COc1cccc2c1C(=O)c1c(O)c3c(c(O)c1C2=O)C[C@@](O)(C(=O)CO)C[C@@H]3O[C@H]1C[C@H](N)[C@H](O)[C@H](C)O1 [Doxorubicin],effect of 32° C. for 24 hrs after drug on growth inhibition (colony formation),UC3 bladder cancer cells,modestly increased
"OC[C@H]1O[C@@H](n2cnc3c(NC4CCCCC4)ncnc32)[C@H](O)[C@@H]1O [CHA, N^6-cyclohexyladenosine]",weight loss during hypothermia,"[1]; CHA 10 mg/kg injections, due to loss of mobility and food intake",~10%
same,duration body temperature maintained at 32° C.,"[1]; multiple injections of CHA, 28° C. environment",24 to 32 h
same,body temperature after CHA injection,[1]; [3],~3 °C above the environment
same,time for body temperature decrease,[1]; [3],~10 min
C[C@@H]1C[C@@H]([C@H](O)CC2CC(=O)NC(=O)C2)C(=O)[C@@H](C)C1 [cycloheximide],rescue of p53 DNA binding at 32° C. (ChIP),[2]; cycloheximide (CHX),did not prevent the rescue of DNA binding
C=CCNC1=C2C[C@@H](C)C[C@H](OC)[C@H](O)[C@@H](C)/C=C(\C)[C@H](OC(N)=O)[C@@H](OC)/C=C\C=C(/C)C(=O)NC(=CC1=O)C2=O [17-AAG],p53 activation at 32° C. (ChIP DNA binding),[2]; 50 μM 17-AAG,blocked p53 activation
